# Data: patent publication US20050250835A1, “Novel tumor-selective chemotherapeutic agents” (priority 2004, published 2005)
# Read-outs that look alike come from different tables or passages of the source.
# Key:
# L1210 leukemia cells = assay: Anticancer activity in vitro, 3H-thymidine incorporation; assay type: cell-based, murine; settings: Mus musculus, 48-h proliferation assay, 3H-thymidine uptake, mean of two experiments
# Protocol: The antitumor activity of the compounds was evaluated in vitro against L1210 leukemia and human SKOV-3 ovarian cancer cells (Table 4). L1210 leukemia cells and SKOV-3 (2.5×10^4 cells/well) in RPMI-1640 medium supplemented with 10% FCS medium were seeded in a 96-well plate. Drugs (10 uL) at increasing concentrations were added to each well, and the total volume was adjusted to 0.1 mL/well using the same medium. For L1210 leukemia cells, the plate was incubated for 24 h at 37° C. followed by addition of 10 uL of ^3H-thymidine (20 uCi/mL). […] The plate was incubated for another 24 h. The cells were harvested, and radioactivity was counted using the Packard Matrix 96 beta counter. The results were expressed as the minimal concentration that inhibits ^3H-thymidine incorporation by 50% (IC50). Percent growth inhibition was calculated as follows: [(total cpm−experimental cpm)/total cpm]×100.
# L1210 leukemia = L1210 leukemia tumor model in mice
# Protocol: The compounds were tested in male BDF1 mice (18-22 g, 6 mice/group) bearing L1210 leukemia cells. […] Diluted ascitic fluid (0.1 mL) containing 10^5 leukemia cells were inoculated, i.p. in mice on day 0.
# [1] = system: MDA-MB 435 human breast cancer; settings: cited from earlier work
# [2] = system: SKOV-3 human ovarian cancer; assay: SKOV-3 human ovarian cancer xenograft; assay type: in vivo, CD1 nude mice
# Protocol: Ovarian cancer is one of the most difficult to treat human cancers, and very few drugs are effective. YW-391 had significant activity in SKOV-3 human ovarian cancer xenograft (FIG. 8 and Table 9). […] [table] treated animals. YW-391 and doxorubicin were administered iv., and paclitaxel was administered ip. Equivalents
# [3] = JC breast adenocarcinoma in mice; assay type: in vivo, Balb/c mice; settings: BALB/c, mouse, in vivo, intravenous, 8 mg/kg; mice bearing JC
# Protocol: (§1) JC is an epithelial-like cell line established in 1983 from a spontaneous primary adenocarcinoma along the milk line (Capone et al., Cancer Immuno. Immunother. 1987, 25, 93-9). It produces tumors with papillary adenocarcinoma morphology in BALB/c mice. […] At the lowest dose of 0.16 mg/kg, (+)-YW-391 (LCK: 1.5) killed 10-times more tumor cells than Dox at 8 mg/kg (LCK: 0.78). (+)-YW-391 has the potential to be a powerful new treatment for human breast cancer.
# JC breast adenocarcinoma = JC breast adenocarcinoma in mice; assay type: in vivo, Balb/c mice
# Protocol: as §1
# endogenous albumin = molecular target: T1, endogenous albumin (Homo sapiens, UniProt P02768); settings: human blood plasma; cited from earlier work
# T1 construct: selectivity of Dox-MH for endogenous albumin, Dox-MH was incubated with human blood plasma; from tissue; host or cells: human blood plasma
# T1 sequence (P02768 25-609): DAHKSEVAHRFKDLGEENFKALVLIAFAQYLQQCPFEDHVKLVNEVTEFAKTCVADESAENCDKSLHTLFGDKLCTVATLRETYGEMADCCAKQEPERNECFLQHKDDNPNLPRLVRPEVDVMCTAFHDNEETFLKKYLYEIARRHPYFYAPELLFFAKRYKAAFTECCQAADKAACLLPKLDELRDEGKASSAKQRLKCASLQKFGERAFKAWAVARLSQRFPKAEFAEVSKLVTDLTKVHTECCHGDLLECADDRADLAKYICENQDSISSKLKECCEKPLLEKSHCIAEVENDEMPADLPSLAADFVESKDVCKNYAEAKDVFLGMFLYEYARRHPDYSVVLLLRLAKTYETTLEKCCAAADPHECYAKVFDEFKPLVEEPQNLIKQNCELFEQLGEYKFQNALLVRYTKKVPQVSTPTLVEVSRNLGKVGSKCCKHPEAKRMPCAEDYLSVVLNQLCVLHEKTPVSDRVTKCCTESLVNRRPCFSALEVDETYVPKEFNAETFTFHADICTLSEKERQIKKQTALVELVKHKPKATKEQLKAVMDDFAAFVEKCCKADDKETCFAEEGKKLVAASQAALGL
# HSA = HSA (Homo sapiens, UniProt P02768); settings: exogenously added HSA; cited from earlier work
# HSA, sequence (P02768 25-609): as above
# [4] = system: mouse renal RENCA, human breast cancers MDA-MB 435 and MCF-7; settings: three animal tumor models; cited from earlier work
# various tumors = settings: cited from earlier work
# Lewis lung carcinoma = Lewis lung carcinoma in mice
# colon 38 adenocarcinoma = assay: Colon 38 adenocarcinoma in mice; assay type: in vivo, BDF1 mice
# [5] = one patient with liver cancer, 40 microg/m^2, one cycle (days 1-5); cited from earlier work
# various cancer cells = various cancer cells in vitro, 1 h exposure (Ghielmini et al. 1997); cited from earlier work
# [6] = 3.0 mg/kg i.v. on days 1, 5, 12
# [7] = 0.2 mg/kg i.v. on days 1, 5, 12
smiles,measurement,setting,value
O=C(CCCCCN1C(=O)C=CC1=O)Oc1cc2c(c3ccccc13)[C@H](CCl)CN2C(=O)c1cc2cc(NC(=O)c3cc4ccccc4o3)ccc2[nH]1 [(+)-YW-392],IC50,L1210 leukemia cells,31 nM
"COc1cccc2c1C(=O)c1c(O)c3c(c(O)c1C2=O)C[C@@](O)(C(=O)CO)C[C@@H]3O[C@H]1C[C@H](N)[C@H](O)[C@H](C)O1 [Doxorubicin, doxorubicin]",% ILS,L1210 leukemia; 10.0 mg/kg i.v. on day 1,85%
same,antitumor response,[1]; free Dox,modest antitumor activity
same,body weight loss,[1]; treatment with free Dox,about 10%
same,% Maximum weight loss,"[2]; 5 mg/kg iv. on days 15, 24, 33",−4%
same,% Tumor growth inhibition,"[2]; 5 mg/kg iv. on days 15, 24, 33",39%
same,MTD,[3],8 mg/kg
same,% Maximum weight loss,JC breast adenocarcinoma; 8.0 mg/kg q4d × 3 i.v.,−25%
same,% Tumor growth inhibition,JC breast adenocarcinoma; 8.0 mg/kg q4d × 3 i.v.,82%
same,Log10 cell kill (LCK),JC breast adenocarcinoma; 8.0 mg/kg q4d × 3 i.v.,0.78
COc1cccc2c1C(=O)c1c(O)c3c(c(O)c1C2=O)C[C@@](O)(/C(CO)=N/NC(=O)CCCCCN1C(=O)C=CC1=O)C[C@@H]3O[C@H]1C[C@H](N)[C@H](O)[C@H](C)O1 [Dox-MH],body weight change,[1]; after 24 days of drug administration,did not produce an overall change in body weight
same,antitumor response,[1]; optimal dose 3×39.3 umol/kg (3×23 mg/kg),complete remissions
same,time by which all of the Dox-MH had reacted,endogenous albumin,≤ 90 min
same,time by which all of the Dox-MH had reacted,HSA,≤ 90 min
same,time within which majority of the Dox-MH reacted with HSA,HSA,≤ 5 min
same,antitumor efficacy and toxicity versus free doxorubicin,[4],distinctly superior to free doxorubicin
"Cc1c[nH]c2c1[C@@]13C[C@@H]1CN(C(=O)c1cc4cc(NC(=O)c5cc6ccccc6o5)ccc4[nH]1)C3=CC2=O [Adozelesin, adozelesin]",antitumor activity in vivo,"various tumors; L1210 leukemia, B16 melanoma, M5076 sarcoma, colon 38, colon CX-1, lung LX-1, pancreas 02, ovarian 2780 in mice (Li et al. 1991)",very active
"Cc1c[nH]c2c(O)cc3c(c12)[C@H](CCl)CN3C(=O)c1cc2cc(NC(=O)Nc3ccc4[nH]c(C(=O)N5C[C@@H](CCl)c6c5cc(O)c5[nH]cc(C)c65)cc4c3)ccc2[nH]1 [Bizelesin, bizelesin]",antitumor activity in vivo,"various tumors; P388, L1210, B16, UACC-62, LOX IMVI, SK-MEL-3, CAKI-1, LX-1, Lewis lung, HT-29, colon 38, pancreas 02, MCF7, MX-1 (Carter et al. 1996)",effective
"N.N.[Cl][Pt][Cl] [Cisplatin, cisplatin]",% Maximum weight loss,Lewis lung carcinoma; [6],−13%
same,% Tumor growth inhibition,Lewis lung carcinoma; [6],74%
same,Log10 cell kill (LCK),Lewis lung carcinoma; [6],0.45
O=C(CCCCCN1C(=O)C=CC1=O)Oc1cc2c(c3ccccc13)[C@H](CCl)CN2C(=O)c1cc2cc(NC(=O)c3cc4cc(F)ccc4[nH]3)ccc2[nH]1 [(+)-YW-391],% Maximum weight loss,Lewis lung carcinoma; [7],−17%
same,Log10 cell kill (LCK),Lewis lung carcinoma; [7],0.75
same,TGIs,Lewis lung carcinoma; no dose given,98%
same,% ILS,L1210 leukemia; 0.05 mg/kg i.v. on day 1,40%
same,% ILS,L1210 leukemia; 0.1 mg/kg i.v. on day 1,51%
same,tumor cells killed relative to 5-FU at 70 mg/kg,colon 38 adenocarcinoma; 0.15 mg/kg (LCK 2.3) versus 5-FU 70 mg/kg (LCK 1.1),10 times
same,% Maximum weight loss,colon 38 adenocarcinoma; 0.3 mg/kg q4d × 2 i.v.,−25%
same,% Maximum weight loss,"[2]; 0.13 mg/kg iv. on days 15, 24, 33",−3%
same,tumor cells killed relative to Dox at 8 mg/kg,JC breast adenocarcinoma; 0.16 mg/kg (LCK 1.5) versus Dox 8 mg/kg (LCK 0.78),10 times
same,TGI,"JC breast adenocarcinoma; at MTD, dose not given",98%
"CCN(CC)c1ccc2cc(C(=O)Nc3ccc4[nH]c(C(=O)N5C[C@@H](CCl)c6c5cc(OC(=O)Nc5ccccc5)c5[nH]cc(C)c65)cc4c3)oc2c1 [Carzelesin, carzelesin]",duration of partial remission,[5],8 months
same,regression of primary liver cancer,[5],50%
same,antitumor activity in vivo,various tumors; several colon adenocarcinomas and pediatric rhabdomyosarcomas (Houghton et al. 1995),effective
same,average IC70 value,various cancer cells,0.23 ng/mL
COC(=O)c1c(C)[nH]c2c(OC(=O)N3CCN(C)CC3)cc3c(c12)[C@H](CBr)CN3C(=O)c1cc2cc(OC)c(OC)c(OC)c2[nH]1 [KW-2189],antitumor activity in vivo,"various tumors; P388, L1210, B16, colon 26, colon 38, LC-6, ST-4, ST-40, LI-7, PAN-02, MX-1 (Kobayashi et al. 1994)",active
"CC(=O)O[C@H]1C(=O)[C@@]2(C)[C@H]([C@H](OC(=O)c3ccccc3)[C@]3(O)C[C@H](OC(=O)[C@H](O)[C@@H](NC(=O)c4ccccc4)c4ccccc4)C(C)=C1C3(C)C)[C@]1(OC(C)=O)CO[C@@H]1C[C@@H]2O [Paclitaxel, paclitaxel]",% Maximum weight loss,"[2]; 25 mg/kg ip. on days 15, 24, 33",−1%
